# Measurements as given in US20110136162A1, “Compositions and Methods for Functionalized Patterning of Tissue Engineering Substrates Including Bioprinting Cell-Laden Constructs for Multicompartment Tissue Chambers” (Drexel University, priority 2009, published 2011).
# Tested on: Human hepatocytes (HepG2) and human melanoma cells (M10)
# Assay: Micronuclei in binucleated cells after γ-radiation, cells treated with amifostine
# Format: cell-based
# Settings: binucleated cells after 60 hours
# Description: Human hepatocytes (HepG2) and human melanoma cells (M10) were cultured in α-Minimum Essential Medium (Gibco) at 37° C. in 5% CO2. Cells were mixed with BME (i.e., Basement Membrane Matrix Phenol Red-free (BD Biosciences Matrigel)) chilled to 4° C. and printed onto a glass microfluidic chip having a PDMS substrate (see FIGS. 13 and 14) using a temperature-controlled BME printing apparatus 0-5° C. (see, for example, FIGS. 9 and 10).
# After the 4 hour treatment with amifostine, the cells were exposed to 2 Grays of γ-radiation from a cesium source. […] Then, the cells were incubated and allowed to divide for 60 hours and examined for evidence of radiation damage.
# Binucleated cells were examined for the presence of micronuclei as evidence of radiation damage.
structure (smiles),measurement,setting,value
NCCCNCCSP(=O)(O)O [amifostine],radiation-treated cells found to have micronuclei,"microfluidic chip, 1 mM amifostine perfusion 4 hours before and 90 minutes after 2 Grays γ-radiation",about 3%
same,radiation-treated cells found to have micronuclei,"tissue culture plate, 1 mM amifostine 4 hours before and 90 minutes after 2 Grays γ-radiation",about 4%
